Counter-ions that a name gives are not always drawn. Like-named read-outs stand apart in the source and are kept apart here.
Assays:
[1] = system: Common Lambsquarters (CHEAL); test: Greenhouse post-emergence mixture trials, percent visual control; assay type: in vivo
Velvetleaf (ABUTH) = test: as above; assay type: in vivo; conditions: Abutilon theophrasti, post-emergence, 504 h; for pest or weed control at 5 g/ha: Arylex 5 g ai or ae/ha alone
Corn (ZEAMX) = test: as above; assay type: in vivo
[2] = system: Chenopodium album (CHEAL), common lambsquarters; test: Postemergence herbicide evaluation, growth of Chenopodium album (CHEAL); assay type: in vivo; conditions: Chenopodium album, post-emergence; for pest or weed control at 280 g/ha: 280 g ae/ha; for pest or weed control at 560 g/ha: 560 g ae/ha
[3] = system: Ambrosia artemisiifolia (AMBEL), common ragweed; test: Postemergence herbicide evaluation, growth of Ambrosia artemisiifolia (AMBEL); assay type: in vivo; conditions: Ambrosia artemisiifolia, post-emergence; for pest or weed control at 280 g/ha: 280 g ae/ha; for pest or weed control at 560 g/ha: 560 g ae/ha
[4] = Volatility of compounds measured by thermogravimetric analysis (TGA); assay type: physicochemical
[5] = system: weeds ABUTH, AMATA, AMBEL, CHEAL, ERICA; test: Postemergence herbicide evaluation, overall average % weed control (ABUTH, AMATA, AMBEL, CHEAL, ERICA); assay type: in vivo; conditions: post-emergence, read-out: Overall Ave % Weed Control; for pest or weed control at 280 g/ha: 280 g ae/ha
[6] = system: glyphosate resistant Conyza canadensis (L.) (ERICA), horseweed; test: Postemergence herbicide evaluation, growth of Conyza canadensis (ERICA); assay type: in vivo; conditions: Erigeron canadensis, post-emergence; for pest or weed control at 280 g/ha: 280 g ae/ha; for pest or weed control at 560 g/ha: 560 g ae/ha
[7] = system: Amaranthus rudis (AMATA), tall water hemp; test: Postemergence herbicide evaluation, growth of Amaranthus rudis (AMATA); assay type: in vivo; conditions: Amaranthus tuberculatus, post-emergence; for pest or weed control at 280 g/ha: 280 g ae/ha; for pest or weed control at 560 g/ha: 560 g ae/ha
[8] = system: weeds ABUTH, AMATA, AMBEL, CHEAL, ERICA; test: Postemergence herbicide evaluation, overall average % weed control across ABUTH, AMATA, AMBEL, CHEAL and ERICA; assay type: in vivo; conditions: post-emergence, average over five weeds, read-out: Overall Ave % Weed Control; for pest or weed control at 560 g/ha: 560 g ae/ha
[9] = system: Abutilon theophrasti (ABUTH), velvetleaf; test: Postemergence herbicide evaluation, growth of Abutilon theophrasti (ABUTH); assay type: in vivo; conditions: Abutilon theophrasti, post-emergence; for pest or weed control at 280 g/ha: 280 g ae/ha; for pest or weed control at 560 g/ha: 560 g ae/ha
[10] = Chenopodium album, post-emergence, 504 h, read-out: % Control
[11] = Zea mays, post-emergence, 504 h, read-out: % Control
[12] = 168 h, 7 DAA, read-out: Ave. CHEAL, percent reduction in plant size relative to the untreated control
[13] = 504 h, 21 DAA, percent reduction in plant size vs untreated control, read-out: Ave. CHEAL
[14] = 168 h, 7 DAA, read-out: AVE. AMBEL, percent reduction in plant size relative to the untreated control
[15] = 504 h, 21 DAA, percent reduction in plant size vs untreated control, read-out: AVE. AMBEL
[16] = 168 h, 7 DAA, read-out: Ave. ERICA, percent reduction in plant size relative to the untreated control
[17] = 504 h, 21 DAA, percent reduction in plant size vs untreated control, read-out: Ave. ERICA
[18] = 168 h, 7 DAA, read-out: Ave. AMATA, percent reduction in plant size relative to the untreated control
[19] = 504 h, 21 DAA, percent reduction in plant size vs untreated control, read-out: Ave. AMATA
[20] = 168 h, 7 DAA, read-out: AVE. ABUTH, percent reduction in plant size relative to the untreated control
[21] = 504 h, 21 DAA, percent reduction in plant size vs untreated control, read-out: AVE. ABUTH

## O=C(O)CNCP(=O)(O)O [Glyphosate, N-(phosphonomethyl) glycine, reference compound]
[1]; [10]
  pest or weed control at 375 g/ha: 50%
  pest or weed control at 1120 g/ha: 65%
  pest or weed control at 1680 g/ha: 85%
Velvetleaf (ABUTH); read-out: % Control
  pest or weed control at 375 g/ha: 85%
  pest or weed control at 1120 g/ha: 100%
  pest or weed control at 1680 g/ha: 100%
Corn (ZEAMX); [11]
  plant injury at 375 g/ha: 70%

## COC(=O)c1nc(-c2ccc(Cl)c(OC)c2F)cc(N)c1Cl [Arylex, halauxifen-methyl, reference compound]
[1]; Chenopodium album, post-emergence, 504 h, Trial 2 Trt 19: B2 0 g ae/ha, Arylex 5 g ai or ae/ha alone, CHEAL, 21 DAA
  pest or weed control at 5 g/ha: 100%
[1]; Chenopodium album, post-emergence, 504 h, Trial 2 Trt 22: B2 0 g ae/ha, Arylex 6.5 g ai or ae/ha alone, CHEAL, 21 DAA
  pest or weed control at […]: 100%
[1]; Trial Bridge 1, CHEAL, mixing partner alone (D10 at 0 g ae/ha), Arylex 5 g ai or ae/ha, 21 DAA
  % Control: 100%
Velvetleaf (ABUTH); Trial 2 Trt 19, B2 0 g ae/ha, ABUTH, 21 DAA
  pest or weed control at 5 g/ha: 100%
Velvetleaf (ABUTH); Trial 2 Trt 22, B2 0 g ae/ha, Arylex 65 g ai or ae/ha alone, ABUTH, 21 DAA
  pest or weed control at 65 g/ha: 100%
Velvetleaf (ABUTH); Trial Bridge 1 Trt 7, ABUTH, D10 0 g ae/ha, 21 DAA
  pest or weed control at 5 g/ha: 100%
Corn (ZEAMX); Zea mays, post-emergence, 504 h, Trial 2 Trt 19, ZEAMX, B2 0 g ae/ha, Arylex 5 g ai or ae/ha alone, 21 DAA
  plant injury at 5 g/ha: 70%
Corn (ZEAMX); Zea mays, post-emergence, 504 h, Trial 2 Trt 22, ZEAMX, B2 0 g ae/ha, Arylex 6.5 g ai or ae/ha alone, 21 DAA
  plant injury at […]: 75%
Corn (ZEAMX); Zea mays, post-emergence, 504 h, Trial Bridge 1, ZEAMX, Arylex 5 g ai or ae/ha alone (compound rate 0), 21 DAA, single replicate
  plant injury at 5 g/ha: 65%

## CCOc1nc(F)cc2nc(S(=O)(=O)Nc3c(Cl)cccc3Cl)nn12 [Diclosulam]
[1]; Chenopodium album, post-emergence, 504 h, Trial 2 Trt 13: B2 0 g ae/ha, Diclosulam 25 g ai or ae/ha alone, CHEAL, 21 DAA
  pest or weed control at 25 g/ha: 40%
Velvetleaf (ABUTH); Trial 2 Trt 13, B2 0 g ae/ha, Diclosulam 25 g ai or ae/ha alone, ABUTH, 21 DAA
  pest or weed control at 25 g/ha: 100%
Velvetleaf (ABUTH); Trial 2 Trt 16, B2 0 g ae/ha, Diclosulam 35 g ai or ae/ha alone, ABUTH, 21 DAA
  pest or weed control at 35 g/ha: 98%
Velvetleaf (ABUTH); Trial Bridge 1 Trt 4, ABUTH, D10 0 g ae/ha, diclosulam 35 g ai or ae/ha alone, 21 DAA
  pest or weed control at 35 g/ha: 100%
Corn (ZEAMX); Trial Bridge 1, ZEAMX, diclosulam 35 g ai or ae/ha alone (compound rate 0), 21 DAA, single replicate
  % Control: 70%
Corn (ZEAMX); Zea mays, post-emergence, 504 h, Trial 2 Trt 13, ZEAMX, B2 0 g ae/ha, Diclosulam 25 g ai or ae/ha alone, 21 DAA
  plant injury at 25 g/ha: 80%
Corn (ZEAMX); Zea mays, post-emergence, 504 h, Trial 2 Trt 16, ZEAMX, B2 0 g ae/ha, Diclosulam 35 g ai or ae/ha alone, 21 DAA
  plant injury at 35 g/ha: 95%
Corn (ZEAMX); Zea mays, post-emergence, 504 h, Trial Bridge 1, ZEAMX, diclosulam 35 g ai or ae/ha alone (compound rate 0), 21 DAA, single replicate
  plant injury at 35 g/ha: 70%

## CP(=O)(O)CCC(N)C(=O)O (stereo not shown) [Glufosinate, 2-amino-4-(hydroxy(methyl)phosphinyl)butanoic acid ammonium salt]
Velvetleaf (ABUTH); read-out: % Control
  pest or weed control at 200 g/ha: 5%
Corn (ZEAMX); [11]
  plant injury at 200 g/ha: 5%
  plant injury at 900 g/ha: 10%

## COc1ncc(OC(=O)COc2ccc(Cl)cc2Cl)cn1 [Compound E12]
[2]; [12]
  pest or weed control at 280 g/ha: 77.5%
  pest or weed control at 560 g/ha: 80%
[2]; 336 h, 14 DAA, read-out: Ave. CHEAL, percent reduction in plant size relative to the untreated control
  pest or weed control at 280 g/ha: 90%
[2]; 336 h, 14 DAA, percent reduction in plant size vs untreated control, read-out: Ave. CHEAL
  pest or weed control at 560 g/ha: 95%
[2]; [13]
  pest or weed control at 280 g/ha: 87.5%
  pest or weed control at 560 g/ha: 87.5%
[3]; [14]
  pest or weed control at 280 g/ha: 75%
  pest or weed control at 560 g/ha: 77.5%
[3]; 336 h, 14 DAA, read-out: AVE. AMBEL, percent reduction in plant size relative to the untreated control
  pest or weed control at 280 g/ha: 70%
[3]; 336 h, 14 DAA, percent reduction in plant size vs untreated control, read-out: AVE. AMBEL
  pest or weed control at 560 g/ha: 90%
[3]; [15]
  pest or weed control at 280 g/ha: 100%
  pest or weed control at 560 g/ha: 100%
[4]
  TGA Data (rate of weight loss, volatility): 0.04464 µg/min
[5]; 168 h, 7 DAA
  pest or weed control at 280 g/ha: 69.5%
[5]; 168 h, 560 g ae/ha, 7 DAA
  pest or weed control at 560 g/ha: 73.5%
[5]; 336 h, 14 DAA
  pest or weed control at 280 g/ha: 79.5%
[6]; [16]
  pest or weed control at 280 g/ha: 75%
  pest or weed control at 560 g/ha: 85%
[6]; 336 h, 14 DAA, read-out: Ave. ERICA, percent reduction in plant size relative to the untreated control
  pest or weed control at 280 g/ha: 97.5%
[6]; 336 h, 14 DAA, percent reduction in plant size vs untreated control, read-out: Ave. ERICA
  pest or weed control at 560 g/ha: 100%
[6]; [17]
  pest or weed control at 280 g/ha: 96.5%
  pest or weed control at 560 g/ha: 100%
[7]; [18]
  pest or weed control at 280 g/ha: 70%
  pest or weed control at 560 g/ha: 75%
[7]; 336 h, 14 DAA, read-out: Ave. AMATA, percent reduction in plant size relative to the untreated control
  pest or weed control at 280 g/ha: 80%
[7]; 336 h, 14 DAA, percent reduction in plant size vs untreated control, read-out: Ave. AMATA
  pest or weed control at 560 g/ha: 87.5%
[7]; [19]
  pest or weed control at 280 g/ha: 70%
  pest or weed control at 560 g/ha: 87.5%
[8]; 336 h, 14 DAA
  pest or weed control at 560 g/ha: 85%
[8]; 504 h, 280 g ae/ha, 21 DAA
  pest or weed control at 280 g/ha: 83.8%
[8]; 504 h, 21 DAA
  pest or weed control at 560 g/ha: 87.5%
[9]; [20]
  pest or weed control at 280 g/ha: 50%
  pest or weed control at 560 g/ha: 50%
[9]; 336 h, 14 DAA, read-out: AVE. ABUTH, percent reduction in plant size relative to the untreated control
  pest or weed control at 280 g/ha: 60%
[9]; 336 h, 14 DAA, percent reduction in plant size vs untreated control, read-out: AVE. ABUTH
  pest or weed control at 560 g/ha: 52.5%
[9]; [21]
  pest or weed control at 280 g/ha: 65%
  pest or weed control at 560 g/ha: 62.5%

— patent publication US20260042731A1, “(2,4-DICHLOROPHENOXY)ACETIC ACID ANALOGS” (CORTEVA AGRISCIENCE LLC, priority 2022, published 2026)
